Series [1] has as its system mTLR9mut (D535→A and Y537→A). The experiment in a line: NF-κB luciferase assay, HEK 293 cells transfected with mutated full length mTLR9. The format is cell-based, murine. Conditions: 1 μM CpG-DNA. As for the experimental part: FIG. 3D is a bar graph depicting activation of mTLR9- and mTLR9mut-transfected cells from FIG. 3C. Cells were stimulated with 1 μM CpG-DNA or 10 ng/ml of the TLR-independent stimulus 12-O-tetradecanoylphorbol 13-acetate (TPA) and subsequent NF-κB induction was analyzed. Activation is expressed as fold induction compared to no stimulation.
(§1) Mutation. For mutation of wild-type mTLR9 amino acids D535 and Y537 to two alanines, the primers 5′-[…]-3′ (SEQ ID NO:5) and 5′-[…]-3′ (SEQ ID NO:6) were used to generate mTLR9-mut. A site-specific-mutagenesis kit from Stratagene (Amsterdam, Netherlands) was applied according to the manufacturer's protocol. All PCR fragments were sequenced and found error-free.
NF-κB luciferase assay. For monitoring transient NF-κB activation, 3×10^6 HEK 293 cells were electroporated at 200 volt and 950 μF with 20 ng of a NF-κB luciferase reporter plasmid (kindly provided by Patrick Baeuerle, Munich, Germany) and 1 μg mTLR2 (kindly provided by Tularik, Inc., South San Francisco, USA), mTLR9, or mTLR9-mut expression plasmid. Cells were seeded at 10^5 cells per well and after overnight culture stimulated with 1 μM phosphorothioated CpG-DNA 1668 (SEQ ID NO:1), 1 μM non-CpG-DNA 1668GC (SEQ ID NO:3), 1 μg/ml Pam3CysK4 or 1 μg/ml PHCK4 for further 8 hours. […]

Series [2] has as its target T1, mTLR9ect-mut (D535→A and Y537→A) (Mus musculus, UniProt Q9EQU3, D535A/Y537A).
T1 construct: mTLR9ect-mut (see below) (aa 1-816); made in house
T1 sequence (Q9EQU3 26-816 D535A/Y537A): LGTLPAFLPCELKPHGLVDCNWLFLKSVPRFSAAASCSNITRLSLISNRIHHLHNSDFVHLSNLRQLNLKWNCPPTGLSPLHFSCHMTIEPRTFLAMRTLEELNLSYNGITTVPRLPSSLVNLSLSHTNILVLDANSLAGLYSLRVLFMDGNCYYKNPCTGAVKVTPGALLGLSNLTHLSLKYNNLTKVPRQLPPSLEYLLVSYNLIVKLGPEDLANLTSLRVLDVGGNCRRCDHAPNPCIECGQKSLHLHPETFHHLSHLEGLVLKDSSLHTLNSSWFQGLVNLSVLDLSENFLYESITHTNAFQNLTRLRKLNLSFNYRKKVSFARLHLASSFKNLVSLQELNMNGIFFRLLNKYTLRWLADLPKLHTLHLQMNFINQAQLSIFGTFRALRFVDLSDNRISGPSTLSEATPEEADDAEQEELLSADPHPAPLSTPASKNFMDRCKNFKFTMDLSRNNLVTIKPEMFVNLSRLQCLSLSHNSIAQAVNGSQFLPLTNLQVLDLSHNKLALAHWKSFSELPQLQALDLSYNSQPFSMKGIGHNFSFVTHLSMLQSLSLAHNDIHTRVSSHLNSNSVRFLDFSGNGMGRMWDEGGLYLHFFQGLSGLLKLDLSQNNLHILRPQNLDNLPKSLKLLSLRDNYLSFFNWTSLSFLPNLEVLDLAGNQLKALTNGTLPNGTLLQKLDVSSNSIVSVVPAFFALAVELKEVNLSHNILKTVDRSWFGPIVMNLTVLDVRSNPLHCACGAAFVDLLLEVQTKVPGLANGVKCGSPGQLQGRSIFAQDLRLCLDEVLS
Briefly: SPR biosensor analysis of double mutated mTLR9ect-mut on CpG-DNA. Conditions: 200 nM protein, compared to wild-type mTLR9ect. The format is binding, murine. On the procedure:
FIG. 3B is a graph depicting SPR biosensor analysis of wild-type and double mutated mTLR9ect (mTLR9ect-mut, D535→A and Y537→A). Proteins were injected at 200 nM on sensor chips with immobilized CpG- and non-CpG-DNA and the sensorgrams recorded.
as §1
SPR biosensor analysis. Real-time binding of TLR9 or TLR2 was measured by surface plasmon resonance biosensor technology using the BiaCore X system (Uppsala, Sweden). For analysis of TLR9 and TLR2 interaction, biotinylated CpG-DNA and non-CpG-DNA, or biotinylated Pam3CysK4 and PHCK4, respectively, were loaded in running buffer (50 mM MES, 150 mM NaCl, 1 mM MgCl2 at pH 6.5) on SA chips precoated with streptavidin (Biacore AB, Uppsala, Sweden). Non-CpG-DNA or PHCK4 (Wiesmuller K H et al. (1989) Vaccine 7:29-33) served as reference for CpG-DNA and Pam3CysK4 interaction (structure or sequence in Table 1). […] Binding was measured at 25° C. for 750 s (delay time 300 s). […] Sensorgrams were recorded and kinetic data were calculated by the BiaCore Evaluation program (Biacore, version 3.0.1). […]
In general terms: SPR reads the build-up and loss of mass on a sensor chip optically.

Take “5′-TCCATGACGTTCCTGATGCT-3′ (chemistry not given here) [CpG-DNA 1668, synthetic CpG oligodeoxynucleotide, TLR9 ligand]”: the “response of cells with mutated full length mTLR9 to CpG-DNA (NF-κB induction)” value in series [1] was “did not respond”. Besides, the “binding of mTLR9ect-mut to CpG-DNA” value in series [2] is on record as “bound only weakly”.

(Values after US20050100983A1, “Cell-free methods for identifying compounds that affect toll-like receptor 9 (TLR9) signaling” (Coley Pharmaceutical GmbH, priority 2003, published 2005).)
